The record followed here is patent US12528796B2, “Modulators of RAS GTPase” (Tosk, Inc., priority 2019, dated 2026).

For orientation: IC50 means the concentration that gives 50% inhibition.

Each structure is given as a SMILES string. Where only a bound is given, the exact number is not on record here.

In one assay the test system is SW620 cells (KRAS-G12V). Briefly: Cell proliferation / cytotoxicity assay (CellTiter-Glo 2.0). It is filed as cell-based. The note with it: Homo sapiens, SW-620, 72 h, SW620 cell line (KRAS-G12V), 72 hours incubation, luminescence (CellTiter-Glo 2.0); read-out: 5W620 IC50. The procedure: Compounds are assayed for inhibition of cell proliferation and killing cancer cells. Cytotoxicity assays are conducted according to the following general procedure. SW620 cells (ATCC CCL-227) are maintained in DMEM Low Glucose (Corning 10-014-CV) media supplemented with 10% fetal bovine serum and 1% PenStrep and grown at 37° C. in 5% CO2. Cells are plated into 96 well flat bottom plates (2 million/plate, ˜20,000/well, 200 μL media/well). The cells are allowed to settle and adhere to the plate bottom overnight. Compounds are diluted in media from a 10 mM stock solution starting at 50 μM, using 2-fold dilutions, in a column in a 96-well plate. Media is removed from the plate containing cells and replaced with media containing diluted compounds. Plates are incubated 72 hours at 37° C. in 5% CO2. Plates were allowed to come to room temperature and 100 μL CellTiter-Glo 2.0 reagent (Promega, G924C) is added at room temperature. Plates are shaken for 2 minutes, then allowed to stand for 15 minutes. Luminescence is read with FLx800 (BioTek Instruments). Data is plotted with GraphPad Prizm 8.0.
Dose response curves for the cytotoxicity of exemplary compounds against SW620 (KRAS-G12V) and MIA PaCa-2 (KRAS-G12C) cell lines are shown in FIG. 1A-1J.
As to `Cc1nc(NC2CCN(Cc3ccc(Cl)cc3)CC2)nc2ccc(-c3cccc4c3NC(=O)CC4)cc12` [Compound 65], the IC50 is below 5 µM. Still for that read-out and setting: the result for `Cc1nc(NC2CCN(Cc3ccc(Cl)cc3)CC2)nc2ccc(-c3ccnc(N4CCOCC4)c3F)cc12` [Compound 46] reads 5 to 10 µM; that for `Cc1nc(NC2CCN(Cc3ccc(Cl)cc3)CC2)nc2ccc(-c3cccc4c3OCC3(CC3)CO4)cc12` [Compound 41], 5 to 10 µM. As for `Cc1nc(N[C@@H]2CCN(C(=O)c3ccc(Cl)cc3)[C@H](C)C2)nc2ccc(-c3cccc4c3OCCO4)cc12` [Compound 12], the IC50 lay within 5 to 10 µM. With `Cc1nc(N[C@@H]2CC[C@H]3CC[C@@H](C2)N3C(=O)c2ccccc2Cl)nc2ccc(-c3cccc4c3CCCC4)cc12` [Compound 72], the IC50 was 5 to 10 µM.

Consider `Cc1nc(NC2CCN(C(=O)c3cccc(Cl)c3)CC2)nc2ccc(-c3cccc4c3OCCO4)cc12` [Compound 15], for which the IC50 fell in the range of 5 to 10 µM. In the case of `Cc1nc(NC2CCN(C(=O)c3ccc(Cl)cc3)CC2)nc2ccc(-c3cccc4c3CCNC4)cc12` [Compound 7], the IC50 was 5 to 10 µM.

As to `COc1c(Cl)cccc1-c1ccc2nc(NC3CCN(Cc4ccc(Cl)cc4)CC3)nc(C)c2c1` [Compound 28], the IC50 was below 5 µM. Still for that read-out and setting: for `COc1cc(-c2ccc3nc(NC4CCN(Cc5ccc(Cl)cc5)CC4)nc(C)c3c2)ccn1` [Compound 50] the value was 5 to 10 µM; for `Cc1nc(NC2CCN(Cc3ccc(Cl)cc3)CC2)nc2ccc(-c3cccc4c3OCC(=O)N4)cc12` [Compound 70], 5 to 10 µM; for `COc1c(Cl)cccc1-c1ccc2nc(NC3CCN(C(=O)c4ccccc4Cl)CC3)nc(C)c2c1` [Compound 43], 5 to 10 µM. The same measure, in the same setting: for `CC(=O)N1CCc2c(cccc2-c2ccc3nc(NC4CCN(C(=O)c5ccc(Cl)cc5)CC4)nc(C)c3c2)C1` [Compound 8] the value was 5 to 10 µM; for `Cc1nc(NC2CCN(Cc3ccc(Cl)cc3)CC2)nc2ccc(-c3cccnc3OCC(C)C)cc12` [Compound 57], 5 to 10 µM. The same measure, in the same setting: the result for `COc1ccccc1C(=O)N1CCC(Nc2nc(C)c3cc(-c4cccc5c4OCCO5)ccc3n2)CC1` [Compound 17] reads 5 to 10 µM; that for `Cc1nccc(-c2ccc3nc(N[C@@H]4CC[C@H]5CC[C@@H](C4)N5Cc4ccc(Cl)cc4)nc(C)c3c2)c1Cl` [Compound 74], below 5 µM; that for `Cc1ncccc1-c1ccc2nc(NC3CCN(Cc4ccc(Cl)cc4)CC3)nc(C)c2c1` [Compound 54], below 5 µM. With `Cc1nc(NC2CCN(Cc3ccc(Cl)cc3)CC2)nc2ccc(-c3ccncc3C#N)cc12` [Compound 44], the IC50 lay in the range of 5 to 10 µM. The same measure, in the same setting: the result for `Cc1nc(NC2CCN(Cc3ccc(Cl)cc3)CC2)ncc1-c1cccc2c1CCCC2` [Compound 31] reads below 5 µM; that for `Cc1nc(NC2CCN(Cc3ccc(Cl)cc3)CC2)nc2ccc(-c3ccncc3C(N)=O)cc12` [Compound 45], below 5 µM; that for `Cc1ncccc1C(=O)N1CCC(Nc2nc(C)c3cc(-c4cccc5c4OCCO5)ccc3n2)CC1` [Compound 13], below 5 µM. On the same count and under the same terms, for `COc1nccc(-c2ccc3nc(NC4CCN(Cc5ccc(Cl)cc5)CC4)nc(C)c3c2)c1Cl` [Compound 53] the value was below 5 µM; for `Cc1nc(N[C@H]2CC[C@@H](N)CC2)nc2ccc(-c3cccc4c3OCC(=O)N4)cc12` [Compound 71], 5 to 10 µM.

As to `Cc1nc(NC2CCN(Cc3ccc(Cl)cc3)CC2)nc2ccc(-c3cncc4[nH]ccc34)cc12` [Compound 58], the IC50 was 5 to 10 µM. Turning to `Cc1nc(N[C@H]2CC[C@@H](NC3Cc4cccc(Cl)c4C3)CC2)nc2ccc(-c3cccc4c3OCCO4)cc12` (some centres unmarked) [Compound 68], the IC50 was below 5 µM. With `Cc1nc(NC2CCN(C(=O)c3ccc(Cl)cc3)[C@@H](C)C2)nc2ccc(-c3cccc4c3OCCO4)cc12` (some centres unmarked) [Compound 11], the IC50 was in the range of 5 to 10 µM. Take `Cc1nccc(-c2ccc3nc(NC4CCN(Cc5ccc(Cl)cc5)CC4)nc(C)c3c2)c1Cl` [Compound 52]: the IC50 is below 5 µM.

As for `Cc1nc(NC2CCN(Cc3ccc(Cl)cc3)CC2)nc2ccc(-c3ccnc4[nH]ccc34)cc12` [Compound 42], the IC50 was below 5 µM. As to `COc1cccc(-c2ccc3nc(NC4CCN(Cc5ccc(Cl)cc5)CC4)nc(C)c3c2)c1OC` [Compound 39], the IC50 is below 5 µM. The same measure, in the same setting: the result for `COc1ncccc1-c1ccc2nc(NC3CCN(Cc4ccc(Cl)cc4)CC3)nc(C)c2c1` [Compound 55] reads below 5 µM. With `Cc1nc(N[C@@H]2CC[C@H]3CC[C@@H](C2)N3C(=O)c2ccc(Cl)cc2Cl)nc2ccc(-c3cccc4c3CCCC4)cc12` [Compound 73], the IC50 is 5 to 10 µM. The same measure, in the same setting: for `Cc1ccc2ccc(F)c(-c3ccc4nc(NC5CCN(C(=O)c6ccccc6Cl)CC5)nc(C)c4c3)c2n1` [Compound 61] the value was 5 to 10 µM; for `COc1c(Cl)cc(F)cc1-c1ccc2nc(NC3CCN(Cc4ccc(Cl)cc4)CC3)nc(C)c2c1` [Compound 20], below 5 µM. Regarding `Cc1nc(NC2CCN(Cc3ccc(Cl)cc3)CC2)nc2ccc(-c3cccc4c3C(=O)CCO4)cc12` [Compound 63], the IC50 was below 5 µM. With `Cc1cccc(-c2ccc3nc(NC4CCN(Cc5ccc(Cl)cc5)CC4)nc(C)c3c2)c1C` [Compound 29], the IC50 is below 5 µM. The same measure, in the same setting: for `COc1cccc(-c2ccc3nc(NC4CCN(Cc5ccc(Cl)cc5)CC4)nc(C)c3c2)n1` [Compound 48] the value was 5 to 10 µM; for `Cc1nc(NC2CCN(Cc3ccc(Cl)cc3)CC2)nc2ccc(-c3cccc4c3/C(=N/O)CCC4)cc12` [Compound 33], below 5 µM. Still for that read-out and setting: for `COc1cc(-c2ccc3nc(NC4CCN(Cc5ccc(Cl)cc5)CC4)nc(C)c3c2)c(Cl)cn1` [Compound 51] the value was below 5 µM.

As for `Cc1nc(NC2CCN(Cc3ccc(Cl)cc3)CC2)nc2ccc(-c3cc(F)cc4c3OC(C)(C)C(=O)N4)cc12` [Compound 30], the IC50 is below 5 µM. Regarding `Cc1ccc2[nH]ncc2c1-c1ccc2nc(NC3CCN(Cc4ccc(Cl)cc4)CC3)nc(C)c2c1` [Compound 24], the IC50 is below 5 µM. On the same count and under the same terms, for `Cc1ccc2ccc(F)c(-c3ccc4nc(NC5CCN(Cc6ccc(F)cc6)CC5)nc(C)c4c3)c2n1` [Compound 19] the value was 5 to 10 µM. Same read-out and setting: for `COc1ccccc1C(=O)N1CCC(Nc2nc(C)c3cc(-c4cccc5c4OCCO5)ccc3n2)C[C@H]1C` (some centres unmarked) [Compound 26] the value was 5 to 10 µM. Still for that read-out and setting: the result for `Cc1nc(NC2CCN(C(=O)c3ccc(F)cc3)CC2)nc2ccc(-c3cccc4c3OCCO4)cc12` [Compound 14] reads below 5 µM; that for `Cc1nc(NC2CCN(C(=O)c3ccccc3Cl)[C@H](C)C2)nc2ccc(-c3cccc4c3OCCO4)cc12` (some centres unmarked) [Compound 27], below 5 µM. Consider `Cc1nc(NC2CCN(C(=O)c3ccc(Cl)cc3)CC2)nc2ccc(-c3cccc4c3OCCO4)cc12` [Compound 2, (4-chlorophenyl)(4-((6-(2,3-dihydrobenzo[b][1,4]dioxin-5-yl)-4-methylquinazolin-2-yl)amino)piperidin-1-yl)methanone], for which the IC50 was in the range of 5 to 10 µM. Same read-out and setting: the result for `Cc1nc(NC(C)c2cccnc2)nc2ccc(-c3cccc4c3CCCC4)cc12` (centres unmarked) [Compound 34] reads 5 to 10 µM; that for `Cc1nc(NC2CCN(Cc3ccc(Cl)cc3)CC2)nc2ccc(-c3cccnc3OC(C)C)cc12` [Compound 56], below 5 µM.

The assay is the same for the next values; noted with them: SW620 cell line (KRAS-G12V), 72 hours incubation, luminescence (CellTiter-Glo 2.0); read-out: 5W620 IC50.
For `Cc1nc(NC2CCN(C(=O)c3ccc(Cl)cc3)CC2)nc2ccc(-c3cccc4c3CCCC4)cc12` [Compound 35], the IC50 lay within 5 to 10 µM.
